Results from US11497734B2, “Dual inhibitors of TIM-3 and PD-1 pathways” (Aurigene Discovery Technologies Limited, priority 2017, dated 2022).

Experiments:
PD-L1 = biological target: T1, PD-L1 (Mus musculus, UniProt Q9EP73); experiment: Rescue of mouse splenocyte proliferation in the presence of recombinant PD-L1 (CFSE proliferation assay); assay type: cell-based; settings: 100 nM compound; anti-CD3/CD28 stimulated mouse splenocytes + PD-L1; 72 h; read-out: PDL1 (rescue of proliferation @ 100 nM)
T1 construct: Fc (Fc chimera); purchased R&D Systems 1019-B7-100
T1 sequence (Q9EP73 19-238 limits assumed): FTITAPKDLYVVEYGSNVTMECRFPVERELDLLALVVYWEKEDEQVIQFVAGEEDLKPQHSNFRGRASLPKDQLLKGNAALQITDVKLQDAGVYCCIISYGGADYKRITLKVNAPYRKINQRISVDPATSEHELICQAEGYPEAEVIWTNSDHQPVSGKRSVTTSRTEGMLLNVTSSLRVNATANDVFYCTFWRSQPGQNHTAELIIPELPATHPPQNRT
Description: Example 1: Rescue of Mouse Splenocyte Proliferation in the Presence of Recombinant PD-L1/PD-L2
Recombinant mouse PD-L1 (rm-PDL-1, cat no: 1019-B7-100; R&D Systems) were used as the source of PD-L1.
Mouse splenocytes harvested from 6-8 weeks old C57 BL6 mice; RPMI 1640 (GIBCO, Cat #11875); DMEM with high glucose (GIBCO, Cat #D6429); Fetal Bovine Serum [Hyclone, Cat #SH30071.03]; Penicillin (10000 unit/mL)-Streptomycin (10,000 μg/mL) Liquid (GIBCO, Cat #15140-122); MEM Sodium Pyruvate solution 100 mM (100×)), Liquid (GIBCO, Cat #11360); Nonessential amino acid (GIBCO, Cat #11140); L-Glutamine (GIBCO, Cat #25030); Anti-CD3 antibody (eBiosciences—16-0032); Anti-CD28 antibody (eBiosciences—16-0281); ACK lysis buffer (1 mL) (GIBCO, Cat #-A10492); Histopaque (density—1.083 gm/mL) (SIGMA 10831); Trypan blue solution (SIGMA-T8154); 2 mL Norm Ject Luer Lock syringe-(Sigma 2014-12); 40 μm nylon cell strainer (BD FALCON 35230); Hemacytometer (Bright line-SIGMA Z359629); FACS Buffer (PBS/0.1% BSA): Phosphate Buffered Saline (PBS) pH 7.2 (HiMedia TS1006) with 0.1% Bovine Serum Albumin (BSA) (SIGMA A7050) and sodium azide (SIGMA 08591); 5 mM stock solution of CFSE: CFSE stock solution was prepared by diluting lyophilized CFSE with 180 μL of Dimethyl sulfoxide (DMSO C2H6SO, SIGMA-D-5879) and aliquoted in to tubes for further use. Working concentrations were titrated from 10 μM to 1 μM. (eBioscience-650850-85); 0.05% Trypsin and 0.02% EDTA (SIGMA 59417C); 96-well format ELISA plates (Corning CLS3390); BD FACS caliber (E6016); Recombinant mouse B7-H1/PDL1 Fc Chimera, (rm-PD-L1 cat no: 1019-B7-100).
Splenocytes harvested in a 50 mL falcon tube by mashing mouse spleen in a 40 μm cell strainer were further treated with 1 mL ACK lysis buffer for 5 min at room temperature. After washing with 9 mL of RPMI complete media, cells were re-suspended in 3 mL of 1×PBS in a 15 mL tube. 3 mL of Histopaque was added carefully to the bottom of the tube without disturbing overlaying splenocyte suspension. After centrifuging at 800×g for 20 min at room temperature, the opaque layer of splenocytes was collected carefully without disturbing/mixing the layers. Splenocytes were washed twice with cold 1×PBS followed by total cell counting using Trypan Blue exclusion method and used further for cell based assays.
Splenocytes were cultured in RPMI complete media (RPMI+10% fetal bovine serum+1 mM sodium pyruvate+10,000 units/mL penicillin and 10,000 μg/mL streptomycin) and maintained in a CO2 incubator with 5% CO2 at 37° C.
CFSE Proliferation Assay: CFSE is a dye that passively diffuses into cells and hinds to intracellular proteins. 1×10^6 cells/mL of harvested splenocytes were treated with 5 μM of CFSE in pre-warmed 1×PBS/0.1% BSA solution for 10 min at 37° C. Excess CFSE was quenched using 5 volumes of ice-cold culture media to the cells and incubated on ice for 5 min. CFSE labeled splenocytes were further given three washes with ice cold complete RPMI media. CFSE labeled 1×10^5 splenocytes added to wells containing either MDA-MB231 cells (1×10^5 cells cultured in high glucose DMEM medium) or recombinant human PDL-1 (100 ng/mL) and test compounds. Splenocytes were stimulated with anti-mouse CD3 and anti-mouse CD28 antibody (1 μg/mL each), and the culture was further incubated for 72 h at 37° C. with 5% CO2. Cells were harvested and washed thrice with ice cold FACS buffer and % proliferation was analysed by flow cytometry with 488 nm excitation and 521 nm emission filters. Data Compilation, Processing and Inference: […]

recombinant human TIM-3 = experiment: Human PBMC IFN-γ release assay in the presence of recombinant TIM-3; assay type: cell-based; settings: 100 nM compound, plate-coated TIM-3 + anti-CD3, anti-CD28, 72 h
Description: Vehicle: Milli Q water; RPMI 1640 (GIBCO, Cat #11875); Fetal Bovine Serum [Hyclone, Cat #SH30071.03]; Penicillin (10000 unit/ml)-Streptomycin (10,000 μg/ml) liquid (GIBCO, Cat #15140-122); MEM Sodium Pyruvate solution 100 mM (100×). Liquid (GIBCO, Cat #11360); Nonessential amino acid (GIBCO, Cat #11140); L-Glutamine (GIBCO, Cat #25030); Recombinant human TIM-3 (rhGi24 TIM-3/B7-H5 Fc chimera (R&D systems, cat no: 7126-B7); Anti-h/m Gi24/TIM-3/B7-H5 purified mouse monoclonal IgG2B (R&D systems, cat no: MAB7126); Mouse IgG2B isotype control (R&D Systems cat no: MAB 004); Anti human-CD3 antibody (eBiosciences—16-0039); Anti human-CD28 antibody (eBiosciences—16-0289); Histopaque (density-1.077 gm/ml) (SIGMA 1077); Trypan Blue solution (SIGMA-T8154); Hemacytometer (Bright line-SIGMA Z359629); FACS Buffer containing Phosphate Buffered Saline (PBS) pH 7.2; (HiMedia TS1006) with 0.1% Bovine Serum Albumin (BSA) (SIGMA A7050) and sodium azide (SIGMA 08591); 96-well format ELISA plates (Corning 3599); 96-well format ELISA plates (Corning 3361); BD FACS caliber (E6016); Centrifuge (Eppendorf 5810 R); Human IFN-'γ Duo set ELISA kit (R&D Systems; cat no: DY-285).
Human PBMC IFN-γ Release Assay
96-well cell culture plates were pre-coated with recombinant human TIM-3 (2.5 μg/ml) and anti-human CD3 (2.5 μg/ml), and stored at 4° C. overnight. Anti-human TIM-3 and isotype control antibodies were either coated along with the TIM-3 or incubated for 30 min next day before addition of cells. On the next day, plates were washed with 1× PBS and then incubated with test compounds for 30 min. Isolated PBMC (0.1×10^6 cells/well) and anti-human CD28 antibodies (1 μg/ml) were added to the wells. The culture was further incubated for 72 h at 37° C. with 5% CO2. After 72 h of incubation the cell culture supernatants were collected after brief centrifugation at 200 g×5 min at 4° C. and processed for human IFN-γ measurement by ELISA following manufacturer's protocol (R&D Systems; DY-285).
In brief, 96-well ELISA plates were coated with 100 μl/well of capture antibody in coating buffer and incubated overnight at 4° C. Plates were washed five times with wash buffer and further blocked with 200 μl of 1× assay diluents for 1 hr at RT. Following wash step, 100 μl of cell culture supernatants were added to wells and further incubated for 2 hr at RT. Appropriate standards were also included. After wash step, plate was incubated for one hour with 100 μl/well of detection antibody. The wash step was repeated and the plate was incubated for 30 min with 100 μl/well of Avidin-HRP. The plate was washed four times with wash buffer and subsequently incubated for 15 min with 100 μl/well of substrate solution. 50 μl of stop solution was added to each well and the plate was read at 450 nm using Gen5 ver 2.05. Delta OD values were used for calculating the concentrations. The absorbance values were plotted against the standards and the concentration of IFN-γ was determined using GraphPad Prism software. Each experimental condition was carried out in triplicates.
The percent rescue of IFN-γ release of the selected compounds of present invention are set forth below wherein “A” refers to compounds having more than 70% rescue of IFN-γ release, “B” refers to compounds having rescue of IFN-γ release ranges from 50% to 69.9% and “C” refers to compounds having less than 50% rescue of IFN-γ release.

Row | activity at 0.1 µM (PD-L1) | Compound | TIM-3 (rescue of IFN γ release @ 100 nM) (recombinant human TIM-3)
1 | 90% | CC(O)[C@@H](NC(=O)N[C@@H](CC(N)=O)c1nc([C@@H](N)CO)no1)C(=O)O (stereo partly shown) [Compound 22] | C (less than 50% rescue of IFN-γ release)
2 | 47% | CC(O)[C@H](NC(=O)N[C@@H](CC(N)=O)c1nc(C2(N)CCCC2)no1)C(=O)O (stereo partly shown) [Compound 23] | C (less than 50% rescue of IFN-γ release)
3 | 65% | CC(O)[C@H](NC(=O)N[C@@H](CC(N)=O)c1nc([C@@H](O)CO)no1)C(=O)O (stereo partly shown) [Compound 24] | A (more than 70% rescue of IFN-γ release)

The next lines start with the compound.

Row | Compound | activity at 0.1 µM (PD-L1) | TIM-3 (rescue of IFN γ release @ 100 nM) (recombinant human TIM-3)
4 | N=C(N)NCCC[C@H](N)c1noc([C@H](CC(N)=O)NC(=O)N[C@@H](CO)C(=O)O)n1 [Compound 25] | 70% | A (more than 70% rescue of IFN-γ release)
5 | CN[C@@H](CO)c1noc([C@@H](N)CC(N)=O)n1 [Compound 26] | 53% | B (rescue of IFN-γ release ranges from 50% to 69.9%)
